Where a name gives a salt, the structure may show the parent alone. Read-outs that look alike come from different tables or passages of the source.
Columns and labels:
MV4-11 cells = assay: Growth inhibition, MTS assay, MV4-11; type: cell-based, Human; conditions: MTS cell viability, read-out: MV4-11 ED50
HEL92 cells = assay: Growth inhibition, MTS assay, HEL92; type: cell-based, Human; conditions: MTS cell viability, read-out: HEL92 ED50
HepG2 cells = assay: Growth inhibition, MTS assay, HepG2; type: cell-based, Human; conditions: MTS cell viability, read-out: HepG2 ED50
Jeko-1 cells = assay: Growth inhibition, MTS assay, Jeko-1; type: cell-based, Human; conditions: 72 hours, MTS cell viability, read-out: Jeko-1 ED50
From the text: The following cell lines, were obtained and used in tests as outlined below: • Human myelomonocytic, biphenotypic leukemia MV4-11 cells (harboring a Flt3-ITD mutation); • Human Acute Myeloid Leukemia MOLM16 cells; • Human Acute Myeloid Leukemia MOLM13 cells (harboring a Flt3-ITD mutation); • Human Myeloid Leukemia KG-1 cells; • Human erythroleukemia HEL92 cells; • Human mantle cell lymphoma Jeko-1 cells; • Human hepatocellular carcinoma HepG2 cells; and • Human colon adenocarcinoma SW-480 cells.
The assays were carried out according to the following protocol, which is described as an example for the MV4-11 cells:
Ten thousand MV4-11 cells were inoculated into each well of a 96-well microplate (manufactured by Corning Corp.) using Iscove's MDM medium (culture medium) containing 10% fetal calf serum (FCS). The same day, a dimethyl sulfoxide (DMSO) solution of each test compound prepared in a concentration of 10 mmol/L was further diluted with DMSO to the desired concentrations (0.1, 0.5, 1, 2.5, 5 and 10 micromol/L), and the diluted solution was added to each well. The individual wells were further cultured in 5% carbon dioxide at 37° C. for 72 hours. […] Briefly, 10 μl MTS (3-(4,5-Dimethyl-2-thiazolyl)-5-(carboxymethoxyphenyl)-2-(4-sulfophenyl)-2H-tetrazolium was added to each well, and culturing was performed in 5% carbon dioxide at 37° C. for 2 hours. After this incubation and using a microplate spectrophotometer (Synergy 2 multi-mode microplate reader (BioTek)), the absorbance of each well was measured at 490 nm. The value for cells not incubated with a test compound was designated as 100%. By comparing these values with the absorbance difference obtained at the well in which each test compound was added, the cell viability (% viability) after treatment with the test compound was calculated.

hERG potassium channel = hERG potassium channel (Homo sapiens (Human), UniProt Q12809); assay: hERG automated patch clamp assay (QPatch HT)
Chain of hERG potassium channel (Q12809 whole entry): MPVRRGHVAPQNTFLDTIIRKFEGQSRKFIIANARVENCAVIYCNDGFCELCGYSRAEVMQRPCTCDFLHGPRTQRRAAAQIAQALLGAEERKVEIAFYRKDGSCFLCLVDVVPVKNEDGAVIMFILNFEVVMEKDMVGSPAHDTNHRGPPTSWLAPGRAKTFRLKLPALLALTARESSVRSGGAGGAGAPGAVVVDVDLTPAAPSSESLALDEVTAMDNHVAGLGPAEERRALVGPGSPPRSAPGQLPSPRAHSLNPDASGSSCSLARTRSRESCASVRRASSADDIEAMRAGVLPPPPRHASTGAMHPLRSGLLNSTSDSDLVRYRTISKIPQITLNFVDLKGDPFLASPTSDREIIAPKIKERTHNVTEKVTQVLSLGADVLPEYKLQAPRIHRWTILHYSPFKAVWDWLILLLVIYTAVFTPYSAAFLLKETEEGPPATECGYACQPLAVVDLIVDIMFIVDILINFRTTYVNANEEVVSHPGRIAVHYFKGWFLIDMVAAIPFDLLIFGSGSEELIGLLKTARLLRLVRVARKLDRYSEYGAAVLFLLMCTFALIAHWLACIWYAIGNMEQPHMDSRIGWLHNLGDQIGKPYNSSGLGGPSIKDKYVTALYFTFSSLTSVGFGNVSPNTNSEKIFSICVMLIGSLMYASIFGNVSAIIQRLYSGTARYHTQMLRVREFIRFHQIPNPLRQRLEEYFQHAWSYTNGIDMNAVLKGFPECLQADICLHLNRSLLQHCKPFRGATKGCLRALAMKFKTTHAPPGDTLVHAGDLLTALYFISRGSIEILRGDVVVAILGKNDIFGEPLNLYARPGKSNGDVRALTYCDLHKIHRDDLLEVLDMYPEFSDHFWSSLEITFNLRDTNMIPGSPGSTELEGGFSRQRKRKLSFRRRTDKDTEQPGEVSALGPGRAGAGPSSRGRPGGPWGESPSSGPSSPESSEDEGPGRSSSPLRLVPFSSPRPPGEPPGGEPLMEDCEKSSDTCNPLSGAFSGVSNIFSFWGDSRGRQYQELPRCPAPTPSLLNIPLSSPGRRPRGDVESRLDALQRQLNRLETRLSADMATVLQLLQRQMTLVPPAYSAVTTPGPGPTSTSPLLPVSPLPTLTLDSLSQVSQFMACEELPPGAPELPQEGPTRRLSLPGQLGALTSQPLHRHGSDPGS
Protocol: The hERG (human ether-A-go-go-related gene) channel corresponds to an important anti-target for potential new drugs since its inhibition may lead to sudden death. In order to establish whether the compounds of the present invention act on hERG, the following experiment was carried out.
The in vitro effects of the compounds indicated in Table 5 on the hERG potassium channel current (a surrogate for Iκr, the rapidly activating, delayed rectifier cardiac potassium current) expressed in mammalian cells were evaluated at room temperature using the QPatch HT® (Sophion Bioscience A/S, Denmark), an automatic parallel patch clamp system. Each compound indicated in Table 5 was evaluated at 0.1, 1, 3, 10 and 30 μM with each concentration tested in a minimum of two cells (n≥2). The duration of exposure to each compound concentration was 3 minutes.

Pim-1 = Pim-1 (Homo sapiens (Human), UniProt P11309); assay: ADP-Glo Kinase Assay, Pim-1; type: biochemical; conditions: 1 μM compound; for inhibition at 1 µM: read-out: Pim-1 % INH (1 μM)
Chain of Pim-1 (P11309 whole entry): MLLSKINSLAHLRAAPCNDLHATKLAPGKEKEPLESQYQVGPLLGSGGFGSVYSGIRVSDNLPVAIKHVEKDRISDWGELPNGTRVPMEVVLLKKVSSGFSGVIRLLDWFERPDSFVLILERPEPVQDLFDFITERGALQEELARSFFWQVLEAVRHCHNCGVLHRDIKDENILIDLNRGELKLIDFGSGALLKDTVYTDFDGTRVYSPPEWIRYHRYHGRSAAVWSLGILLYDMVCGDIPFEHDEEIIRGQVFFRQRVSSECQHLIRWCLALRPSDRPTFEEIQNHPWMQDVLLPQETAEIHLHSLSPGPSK
In short: (§1)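 Compounds were diluted in assay buffer to 1000 nM and incubated with kinase, substrate and ATP at apparent Km. Remaining ATP was depleted, ADP converted to ATP and detected by luciferase; percent inhibition came from normalized luminescence.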

Pim-2 = Pim-2 (Homo sapiens (Human), UniProt Q9P1W9); assay: ADP-Glo Kinase Assay, Pim-2; type: biochemical; conditions: 1 μM compound; for inhibition at 1 µM: read-out: Pim-2 % INH (1 μM)
Chain of Pim-2 (Q9P1W9 whole entry): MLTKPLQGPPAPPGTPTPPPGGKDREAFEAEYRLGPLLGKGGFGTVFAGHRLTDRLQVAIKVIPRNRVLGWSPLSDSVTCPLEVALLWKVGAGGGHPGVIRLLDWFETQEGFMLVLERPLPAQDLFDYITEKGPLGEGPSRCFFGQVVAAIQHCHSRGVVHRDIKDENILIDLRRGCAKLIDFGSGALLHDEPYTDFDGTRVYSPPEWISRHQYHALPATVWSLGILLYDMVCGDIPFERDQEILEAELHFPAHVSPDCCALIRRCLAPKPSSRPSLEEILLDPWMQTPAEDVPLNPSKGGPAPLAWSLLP
In short: as §1

Pim-3 = Pim-3 (Homo sapiens (Human), UniProt Q86V86); assay: ADP-Glo Kinase Assay, Pim-3; type: biochemical; conditions: 1 μM compound; for inhibition at 1 µM: read-out: Pim-3 % INH (1 μM)
In short: as §1

FLT3wt = FLT3wt (Homo sapiens (Human), UniProt P36888); assay: ADP-Glo Kinase Assay, Flt3 wt; type: biochemical; conditions: 1 μM compound; for inhibition at 1 µM: read-out: Flt3wt % INH (1 μM)
Chain of FLT3wt (P36888 27-993): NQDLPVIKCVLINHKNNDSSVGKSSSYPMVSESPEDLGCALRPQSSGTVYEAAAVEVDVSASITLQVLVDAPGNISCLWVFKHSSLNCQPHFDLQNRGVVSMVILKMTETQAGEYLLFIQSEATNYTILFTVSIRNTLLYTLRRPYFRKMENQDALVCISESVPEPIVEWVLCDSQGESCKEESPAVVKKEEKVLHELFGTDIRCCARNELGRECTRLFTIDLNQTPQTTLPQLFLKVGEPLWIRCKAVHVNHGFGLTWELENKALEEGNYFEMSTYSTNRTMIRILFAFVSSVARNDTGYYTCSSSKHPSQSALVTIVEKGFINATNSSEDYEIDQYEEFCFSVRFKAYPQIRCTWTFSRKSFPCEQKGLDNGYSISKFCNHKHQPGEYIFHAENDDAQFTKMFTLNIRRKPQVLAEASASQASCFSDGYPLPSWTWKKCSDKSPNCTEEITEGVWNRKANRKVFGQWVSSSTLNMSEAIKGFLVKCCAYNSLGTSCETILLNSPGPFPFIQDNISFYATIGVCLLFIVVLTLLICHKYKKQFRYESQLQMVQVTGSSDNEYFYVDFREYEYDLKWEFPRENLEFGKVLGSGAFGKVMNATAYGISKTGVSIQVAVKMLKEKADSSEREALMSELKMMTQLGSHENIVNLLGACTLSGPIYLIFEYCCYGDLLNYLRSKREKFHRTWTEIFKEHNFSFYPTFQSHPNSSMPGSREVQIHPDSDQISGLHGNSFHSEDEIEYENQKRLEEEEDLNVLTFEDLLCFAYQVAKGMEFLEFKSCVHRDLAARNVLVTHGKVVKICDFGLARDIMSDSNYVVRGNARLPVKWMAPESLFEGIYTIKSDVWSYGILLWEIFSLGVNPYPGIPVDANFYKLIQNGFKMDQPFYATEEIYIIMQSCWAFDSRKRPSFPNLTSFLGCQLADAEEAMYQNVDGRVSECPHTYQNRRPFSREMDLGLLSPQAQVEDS
In short: as §1

CDK2/E = CDK2/E (Homo sapiens (Human), UniProt P24941); assay: ADP-Glo Kinase Assay, CDK2/E; type: biochemical; conditions: 1 μM compound; for inhibition at 1 µM: read-out: CDK2/E % INH (1 μM)
In short: as §1

DYRK1 = DYRK1 (Homo sapiens (Human), UniProt Q13627); assay: ADP-Glo Kinase Assay, DYRK1; type: biochemical; conditions: 1 μM compound; for inhibition at 1 µM: read-out: DYRK1A % INH (1 μM)
In short: as §1

SW-480 cells = assay: Growth inhibition, MTS assay, SW-480; type: cell-based, Human; conditions: 72 hours, MTS cell viability, read-out: SW-480 ED50
MV4-11 xenograft = MV4-11 xenograft in immunocompromised mice; type: in vivo; conditions: MV4-11 xenograft, oral
From the text: Several compounds of the present invention have been studied in a xenograft in mice, an in vivo tumor transplantation model used to investigate the factors involved in malignant transformation, invasion and metastasis, as well as to examine response to therapy. For the purpose of acceptance of donor leukemic cells (MV4-11 or MOLM16 cells), immunocompromised mice were used, namely particularly severely compromised immunodeficient mice (NOD/scid, SCID/beige). When tumors developed size of approx. 50-200 mm^3, the compounds as indicated below in Tables 3 and 3a were administered orally every day for 2-3 weeks, in once a day (QD) or twice a day (BID) schedule. During the course of the experiment, the mice were monitored and the following two parameters were measured: the tumor growth inhibition (TGI) factor as a measure of therapeutic efficacy and the body weight change (ΔBW) factor as a measure of possible compound toxicity. The results are depicted in Tables 3 and 3a.
Next, compound 26A was evaluated in a xenograft study of acute myeloid leukemia (MV-4-11), alone or in a combinational treatment with Cytarabine in vivo (Table 3b; FIG. 6). Compound 26A was tested in two doses (50 and 25 mg/kg) and administered twice a day (BID); Cytarabine was administered at dose of 50 mg/kg three times in a week (TIW). During 15 days of compound administration dose-dependent anti-cancer activity of compound 26A (administered alone) was shown. Tumor growth inhibition reached −82% and −77%, respectively.

Row | inhibition at 1 µM (Pim-1) [%] | inhibition at 1 µM (Pim-2) [%] | inhibition at 1 µM (Pim-3) [%] | inhibition at 1 µM (FLT3wt) [%] | inhibition at 1 µM (CDK2/E) [%] | inhibition at 1 µM (DYRK1) [%] | IC50 (MV4-11 cells; Homo sapiens, MV4-11, 72 h) [nM] | IC50 (HepG2 cells; Homo sapiens, HepG2, 72 h) [nM] | IC50 (SW-480 cells; Homo sapiens, SW480) [nM] | SMILES | IC50 (MV4-11 cells; 72 hours) [nM] | IC50 (HEL92 cells; 72 hours) [nM] | IC50 (HepG2 cells; 72 hours) [nM] | IC50 (Jeko-1 cells) [nM] | IC50 (hERG potassium channel) [nM] | IC50 (Jeko-1 cells; Homo sapiens, JeKo-1) [nM] | IC50 (HEL92 cells; Homo sapiens, 72 h) [nM] | also measured
1 | > 95 | 36 | > 95 | < 5 | 17 | 16 | 1200 | – | – | CCCn1c(NCC(O)CN)nc2c([N+](=O)[O-])c(Br)c(Br)cc21 (stereo not shown) [Example 1X] | – | – | – | – | 20400 | 4300 | – | –
2 | > 95 | 52 | > 95 | 18 | 26 | 72 | 500 | 600 | 700 | CCn1c(N2CCNCC2C)nc2c([N+](=O)[O-])c(Br)c(Br)cc21 (stereo not shown) [Example 1AD] | – | – | – | – | 1420 | 400 | 500 | –
3 | 85 | – | 53 | < 5 | 12 | – | 2600 | 2700 | – | CCn1c(NCC2CCCN2)nc2c([N+](=O)[O-])c(Br)c(Br)cc21 (stereo not shown) [Example 1AM] | – | – | – | – | – | 2800 | 8000 | IC50 (hERG potassium channel; human, 3 min): 1460 nM
4 | > 95 | 69 | > 95 | 55 | 39 | > 95 | 600 | 1700 | 1200 | CC(C)Cn1c(N2CCNCC2)nc2c([N+](=O)[O-])c(Br)c(Br)cc21 [Example 1N] | – | – | – | – | – | – | 1400 | TGI (tumor growth inhibition) (MV4-11 xenograft; 150 mg/Kg QD): 52%; ΔBW (body weight change) (MV4-11 xenograft; 150 mg/Kg QD): −6.5%; TGI (tumor growth inhibition) (MV4-11 xenograft; doses as in Table 3): up to 70%; IC50 (hERG potassium channel; human, 3 min): 1280 nM
5 | > 95 | 25 | 86 | < 5 | 6 | – | 1400 | – | – | CC(C)Cn1c(NCC(O)CN)nc2c([N+](=O)[O-])c(Br)c(Br)cc21 (stereo not shown) [Example 1Y] | – | – | – | – | 16900 | 3400 | – | –

Continued, molecule first:

Row | SMILES | inhibition at 1 µM (Pim-1) [%] | inhibition at 1 µM (Pim-2) [%] | inhibition at 1 µM (Pim-3) [%] | inhibition at 1 µM (FLT3wt) [%] | inhibition at 1 µM (CDK2/E) [%] | inhibition at 1 µM (DYRK1) [%] | IC50 (MV4-11 cells; Homo sapiens, MV4-11, 72 h) [nM] | IC50 (HepG2 cells; Homo sapiens, HepG2, 72 h) [nM] | IC50 (SW-480 cells; Homo sapiens, SW480) [nM] | IC50 (MV4-11 cells; 72 hours) [nM] | IC50 (HEL92 cells; 72 hours) [nM] | IC50 (HepG2 cells; 72 hours) [nM] | IC50 (Jeko-1 cells) [nM] | IC50 (hERG potassium channel) [nM] | IC50 (Jeko-1 cells; Homo sapiens, JeKo-1) [nM] | IC50 (HEL92 cells; Homo sapiens, 72 h) [nM] | also measured
6 | CC(C)n1c(N[C@@H]2CCCNC2)nc2c([N+](=O)[O-])c(Br)c(Br)cc21 [Example 1AS] | – | – | – | – | – | – | – | – | – | 600 | 5400 | 1400 | 1100 | 5770 | – | – | –
7 | CCn1c(NCCN)nc2c([N+](=O)[O-])c(Br)c(Br)cc21 [Example 1AL] | – | – | – | – | – | – | – | – | – | 2200 | 5300 | 1400 | 2300 | 2420 | – | – | Pim-1 % INH (1 μM) (Pim-1): >95%; Pim-2 % INH (1 μM) (Pim-2): 42%; Pim-3 % INH (1 μM) (Pim-3): >95%; Flt3wt % INH (1 μM) (FLT3wt): <5%; CDK2/E % INH (1 μM) (CDK2/E): <5%; DYRK1A % INH (1 μM) (DYRK1): 49%; IC50 (SW-480 cells): 5300 nM
8 | CCn1c(N2CCNCC2)nc2c(C#N)c(Br)c(Br)cc21 [Example 8A, 5,6-dibromo-1-ethyl-2-(piperazin-1-yl)-1H-1,3-benzodiazole-4-carbonitrilehydrochloride] | 82 | 14 | 92 | 11 | < 5 | 46 | 1300 | 1700 | 4700 | – | – | – | – | 770 | 1400 | 4800 | –
9 | O=[N+]([O-])c1c(Br)c(Br)cc2c1nc(N1CCNCC1)n2CCN1CCNCC1 [Example 2C, 5,6-dibromo-4-nitro-2-(piperazin-1-yl)-1-[2-(piperazin-1-yl)ethyl]-1H-1,3-benzodiazole hydrochloride] | – | – | – | – | – | – | 2800 | 7000 | – | – | – | – | – | 2500 | 6200 | – | –
10 | CC(C)n1c(N2CCC[C@H](N)C2)nc2c([N+](=O)[O-])c(Br)c(Br)cc21 [Example 1AP] | – | – | – | – | – | – | – | – | – | 300 | 2400 | 900 | 1300 | 1820 | – | – | Pim-1 % INH (1 μM) (Pim-1): >95%; Pim-2 % INH (1 μM) (Pim-2): 80%; Pim-3 % INH (1 μM) (Pim-3): 93%; Flt3wt % INH (1 μM) (FLT3wt): 56%; CDK2/E % INH (1 μM) (CDK2/E): 13%; DYRK1A % INH (1 μM) (DYRK1): 70%; IC50 (SW-480 cells): 2400 nM; TGI (tumor growth inhibition) (MV4-11 xenograft; 150 mg/Kg QD): 99%; ΔBW (body weight change) (MV4-11 xenograft; 150 mg/Kg QD): 11.7%; TGI (tumor growth inhibition) (MV4-11 xenograft; doses as in Table 3): exceeding 97%

Reference: patent publication US10174013B2, “Benzimidazole derivatives as kinase inhibitors” (SELVITA S.A., priority 2012, dated 2019)
